One may read the Ki as the dissociation constant of the complex between target and ligand, obtained from inhibition or displacement. The Cmax is the highest concentration seen after dosing.

In data set [1] the target is NMDA receptor. As to conditions: read-out: Ki, NMDA receptor; 3H-MK801 competition, rat brain membranes, mean, n = 4. As for the experimental part: Membrane preparation was performed as previously described ([Werling et al., 2007]). Briefly, the brains of male Sprague-Dawley rats were dissected for tissue collection. The tissue was then homogenized in ice-cold extraction solution and centrifuged at 40,000 × g for 10 min (minute). The supernatant was discarded, the precipitate was resuspended in extraction solution, and the above steps were repeated two times. Finally, the precipitate was resuspended in a 10-fold volume of resuspension solution and stored at −80°C. Protein concentration was determined using a PierceTM BCA Protein Assay Kit. The competitive binding of the compound and ^3H-MK801 to the NMDA receptor was evaluated utilizing the filtration binding method. This method involves washing unbound radioligands and subsequently quantifying the signal values of the radioligands bound to the NMDA receptor using a Microbeta instrument (catalog number: 2450, Perkin Elmer, Massachusetts, United States).

Data set [2] can be described thus: Metabolic stability in liver microsomes. It is filed as in vitro ADME, human. As for the experimental part: All incubations were performed in duplicates. Verapamil was used as the positive control. After pre-warming the mixture for 5 min, reactions were initiated by the addition of NADPH (1 mM). Samples (30 μL) were taken at 0, 20, and 60 min, and the reaction was immediately terminated by adding 150 μL acetonitrile containing an analytical internal standard (IS). Samples were centrifuged at 4,000 rpm for 5 min in a centrifuge (5810R, Eppendorf, Germany), and the supernatant was analyzed by LC-MS/MS (Thermo Scientific TSQ Quantum Ultra, United States).
The in vivo clearance values (CLint = CLint, in vitro × (mg protein/g liver weight) × (g liver weight/kg body weight)) of humans were predicted by CLint, in vitro values using physiologically-based scaling factors, hepatic microsomal protein concentrations (48.8 mg protein/g liver), and liver weights (25.7 g/kg body weight). The in vivo hepatic clearance (CLH= (Q × CLint)/(Q + CLint)) was then calculated by using CLint and hepatic blood flow, Q (20.7 mL·min^−1·kg^−1 in humans).
On the technique in general: Liver microsomes are vesicles of endoplasmic reticulum, rich in cytochrome P450 enzymes.

Data set [3] is described as follows: Pharmacokinetic study in C57BL/6 mice. It is filed as in vivo. As to conditions: plasma DM or deDM, C57BL/6 mice, oral, 20 mg/kg, mean ± SD. An excerpt:
The assay was built in a way similar to that previously published by [Beconi et al. (2011)] with some modifications. A total of 36 male C57BL/6 mice, weighing between 20 and 22 g, were randomly divided into four groups of nine mice each. […] Mice in each group were numbered 1–9. Following the oral administration of the compounds in each group, blood was collected from the jugular vein at the specified time points, with three mice at each time point and two to three times for each mouse. 1–3 numbered mice had blood collection time points of 0.25, 1.5, and 7 h after the administration of the compounds, 4–6 numbered mice had blood collection time points of 0.5, 2, and 24 h after the administration of the compounds, and 7–9 numbered mice had blood collection time points of 1 and 5 h after the administration of the compounds. All blood samples were collected without anesthesia, and blood was collected in heparinized EP tubes. Plasma was obtained by centrifuging the blood at 10,000 rpm for 2 min at 4°C.

Data set [4] has as its system ICR mice. The data set is described as follows: Forced swim test. The following applies: FST, oral, 1 h after administration, deDM 10 and 18 mg/kg, BUP 50 mg/kg, deDM + BUP 10 + 50 and 18 + 50 mg/kg. It is filed as in vivo. As for the experimental part:
The mouse forced swim test was performed in a way similar to that published previously by Nguyen et al. ([Nguyen et al., 2017]) with some modifications. […] All compounds were administered orally via gavage at a volume of 10 mL/kg body weight, with the vehicle group receiving an equivalent volume of saline. 1 h after administration, mice underwent the forced swim test (FST), a widely used behavioral assay for evaluating antidepressant-like effects. Each mouse was individually placed in a transparent cylindrical tank filled with water (depth: 18 cm, temperature: 25°C ± 1°C) for a 6-min test session. The initial 2 min served as the acclimatization period and was not scored. Floating time during the subsequent 4 min was measured using ANY-Maze Version 4.63 video tracking software (Stoelting Co., Illinois, United States). Floating was defined as the minimum movement required to keep the animal’s head above water. Floating time (%) = floatting time(s)/240 s. The ANY-Maze software parameters were set as follows: acclimatization period = 120 s, test duration = 240 s, minimum immobility time = 2 s, and immobility sensitivity = 75%. To maintain consistent conditions, water was changed between the animals. […]

A short description of data set [5]: Pharmacokinetics in male SD rat after oral administration. It is filed as in vivo. The following applies: DM or deDM, male SD rat, oral, 50 mg/kg, mean, n=3. An excerpt:
Results expressed as mean, n=3 per group

With deuterated dextromethorphan [deDM], the Ki in data set [1] was 1.9 µM. For the same substance, the T1/2 in data set [2] (1 μM, 0.5 mg/mL human liver microsomes, NADPH 1 mM, 37°C, mean, n = 2) was 2.265 h. In addition, in data set [2] (human liver microsomes, calculated from t1/2, mean, n = 2), the “CLint, in vitro” value is recorded as 12.8 mL/min/kg. Moreover, the CLH in data set [2] (in vivo hepatic clearance predicted from CLint and hepatic blood flow 20.7 mL/min/kg, human) is given as 7.9 mL/min/kg. In data set [3], this substance yielded an AUC0-last of 387 ± 163 ng·h/mL and a maximum concentration (Cmax) of 269 ± 83 ng/mL. In data set [4], the “floating time compared to the vehicle group” value was “did not significantly reduce the floating time”. For the same substance, in data set [5], the AUC0-last stood at 374 ng·h/mL and the highest concentration (Cmax) was 84 ng/mL.

The values above are taken from article PMC11462627, “SAL0114: a novel deuterated dextromethorphan-bupropion combination with improved antidepressant efficacy and safety profile” (Frontiers in Pharmacology, 2024).
